How the values were obtained:
[1] = Measurement and evaluation of solubility in MEK and CPN; format: physicochemical; conditions: for Solubility CPN wt %: cyclopentanone; for Solubility CPN wt % / Solubility MEK wt %: room temperature, visual observation, 5 wt % increments; for Solubility MEK wt %: methyl ethyl ketone; for Solubility Evaluation: versus comparative compound with the same Ar and side chain portion of Formula (Ia)
Experimental: Solubility measurements of the synthesized liquid crystal compounds were conducted by the following method. 50 mg of each compound was weighted into a 1.5 mL sample bottle, and solvent was added until the solid component became 40 wt % (75 mg). The solubility was determined to be 40 wt % if clear under visual observation after shaking well manually at room temperature. If undissolved residue was present, solvent was added such that the solid component became 35 wt % (+18 mg). The solubility was determined to be 35 wt % if clear under visual observation after shaking well manually at room temperature. If undissolved residue was present, solvent was added such that the solid component became 30 wt %. Similar operations were performed in increments of 5 wt %, and repeated until the solid component became 5 wt %. If undissolved residue was present, the solubility was determined to be less than 5 wt % (<5 wt %), and measurements were completed. MEK (methyl ethyl ketone) and CPN (cyclopentanone) were utilized as solvents for measuring solubility.
The measured values of solubility were evaluated. The evaluations were conducted by using solubility of a compound of a Comparative Example having Ar (the aromatic ring at the center of General Formula 1) in common with the Examples and a side chain portion represented by Formula (Ia) as a reference, in a manner similar to that in the evaluation of the phase transition temperature. Evaluations of A through C were assigned according to the degree of improvement in solubility from the reference solubility.
(§1) For example, compound (I-1) and (I-2) were compared to Comparative Compound (Ia-1), and Compound (III-3) was compared to Comparative Compound (IIIa-3). The evaluation was carried out based on the following criteria.
A: solubility improved twofold or greater in plural solvents or a single solvent
B: solubility was the same or improved up to twofold in plural solvents or a single solvent
C: no improvement in solubility in plural solvents or a single solvent

[2] = Evaluation of phase transition temperature by polarizing microscope; format: physicochemical; conditions: for Phase Transition Temperature Evaluation of Decrease: versus comparative compound with the same Ar and side chain portion of Formula (Ia)
Excerpt: Here, the temperature at which the compound transitions from the smectic phase to the nematic phase may be easily measured by observation of the composition employing polarized light microscopy. For example, in the nematic phase, a schlieren texture specific to the nematic phase is observed, while the texture transitions to a focal conic fan texture in a smectic A phase. Therefore, the phase transition temperature can be measured by observing the textures with a polarizing microscope while increasing or decreasing the temperature.
The phase transition temperatures of the synthesized liquid crystal compounds of the Examples and Comparative Examples were observed using a polarizing microscope to evaluate the degrees of temperature decrease. Specifically, the compounds of the Examples were compared to the compounds of the Comparative Examples, which have different structures for the side chain portions thereof. That is, the phase transition temperature of a compound of a Comparative Example having Ar (the aromatic ring at the center of General Formula 1) in common with the Examples and a side chain portion represented by Formula (Ia) below was used as a reference. Evaluations of A through C were assigned according to the degree of temperature decrease from the reference phase transition temperature.
as §1
A: decrease in melting point or Sm-N (smectic-nematic) transition temperature is 20° C. or greater
B: decrease in melting point or Sm-N (smectic-nematic) transition temperature is 5° C. or greater and less than 20° C.
C: decrease in melting point or Sm-N (smectic-nematic) transition temperature is less than 5° C.
With respect to the phase transition temperature, the numerical value in parentheses represents the numerical value during temperature decrease, and other numerical values represent a numerical value during temperature increase.

[3] = value in parentheses: during temperature decrease

Solubility CPN wt % [1] [wt %] | Solubility MEK wt % [1] [wt %] | melting point [°C] | TNi(° C.) Isotropic Phase Transition Point ([2]; during temperature increase) | Tsm—N(° C.) Sm—N Transition Point ([2]; during temperature increase) [°C] | TNi(° C.) Isotropic Phase Transition Point [2, 3] | Tsm—N(° C.) Sm—N Transition Point [2, 3] | Structure (SMILES) | Solubility Evaluation [1] | Phase Transition Temperature Evaluation of Decrease [2]
10 | <5 | 189 | >250 ^ ° C. | – | – | – | C=CC(=O)OCCCCCCOc1ccc(OC(=O)[C@H]2CC[C@H](C(=O)Oc3cc(C)c(OC(=O)[C@H]4CC[C@H](C(=O)Oc5ccc(OCCCCCCOC(=O)C=C)cc5)CC4)c4c3SC(=C(C#N)C#N)S4)CC2)cc1 [IVa-1] | – | –
40 | 20 | 108 | 172 °C | 140 | – | – | C=CC(=O)OCCOC(=O)CCC(=O)OCCc1ccc(OC(=O)[C@H]2CC[C@H](C(=O)Oc3ccc(OC(=O)[C@H]4CC[C@H](C(=O)Oc5ccc(CCOC(=O)CCC(=O)OCCOC(=O)C=C)cc5)CC4)c4c3SC(=C(C#N)C#N)S4)CC2)cc1 [Compound I-1] | A (solubility improved twofold or greater in plural solvents or a single solvent) | A (decrease in melting point or Sm-N (smectic-nematic) transition temperature is 20 °C or greater)
35 | 20 | 134 | 190 °C | – | – | – | C=CC(=O)OCCOC(=O)CCC(=O)OCCc1ccc(OC(=O)[C@H]2CC[C@H](C(=O)Oc3ccc(OC(=O)[C@H]4CC[C@H](C(=O)Oc5ccc(CCOC(=O)CCC(=O)OCCOC(=O)C=C)cc5)CC4)c(/C=N/Nc4nc5ccccc5s4)c3)CC2)cc1 [VI-1] | A (solubility improved twofold or greater in plural solvents or a single solvent) | A (decrease in melting point or Sm-N (smectic-nematic) transition temperature is 20 °C or greater)
25 | 15 | 123 | 145 °C | 137 | – | – | C=CC(=O)OCCOC(=O)CCC(=O)OCCc1ccc(OC(=O)[C@H]2CC[C@H](C(=O)Oc3ccc(OC(=O)[C@H]4CC[C@H](C(=O)Oc5ccc(CCOC(=O)CCC(=O)OCCOC(=O)C=C)cc5)CC4)c4sc(=S)sc34)CC2)cc1 [VI-7] | B (solubility was the same or improved up to twofold in plural solvents or a single solvent) | A (decrease in melting point or Sm-N (smectic-nematic) transition temperature is 20 °C or greater)
20 | 10 | 100 | 118 °C | – | – | – | C=CC(=O)OCCOC(=O)CCC(=O)OCCc1ccc(OC(=O)[C@H]2CC[C@H](C(=O)Oc3ccc(OC(=O)[C@H]4CC[C@H](C(=O)Oc5ccc(CCOC(=O)CCC(=O)OCCOC(=O)C=C)cc5)CC4)c4c3SC(=C(C#N)C(=O)OC)S4)CC2)cc1 [III-3] | A (solubility improved twofold or greater in plural solvents or a single solvent) | A (decrease in melting point or Sm-N (smectic-nematic) transition temperature is 20 °C or greater)
10 | <5 | 131 | 240 °C | – | – | – | C=CC(=O)OCCCCCCOc1ccc(OC(=O)[C@H]2CC[C@H](C(=O)Oc3ccc(OC(=O)[C@H]4CC[C@H](C(=O)Oc5ccc(OCCCCCCOC(=O)C=C)cc5)CC4)c4c3SC(=C(C#N)C(=O)OC)S4)CC2)cc1 [IIIa-3] | – | –
20 | <10 | 124 | 247 °C | 164 | – | – | C=CC(=O)OCCCCCCOc1ccc(OC(=O)[C@H]2CC[C@H](C(=O)Oc3ccc(OC(=O)[C@H]4CC[C@H](C(=O)Oc5ccc(OCCCCCCOC(=O)C=C)cc5)CC4)c4sc(=S)sc34)CC2)cc1 [VIa-7] | – | –
25 | 10 | 126 | 185 °C | 179 | – | – | C=CCCCCCCCCC(=O)OCCc1ccc(OC(=O)[C@H]2CC[C@H](C(=O)Oc3ccc(OC(=O)[C@H]4CC[C@H](C(=O)Oc5ccc(CCOC(=O)CCCCCCCCC=C)cc5)CC4)c4c3SC(=C(C#N)C#N)S4)CC2)cc1 [Compound I-14] | A (solubility improved twofold or greater in plural solvents or a single solvent) | B (decrease in melting point or Sm-N (smectic-nematic) transition temperature is 5 °C or greater and less than 20° C.)
25 | 15 | 107 | 156 °C | 126 | – | – | C=CC(=O)OCCCCOC(=O)CCC(=O)OCCc1ccc(OC(=O)[C@H]2CC[C@H](C(=O)Oc3ccc(OC(=O)[C@H]4CC[C@H](C(=O)Oc5ccc(CCOC(=O)CCC(=O)OCCCCOC(=O)C=C)cc5)CC4)c4c3SC(=C(C#N)C#N)S4)CC2)cc1 [Compound I-3] | A (solubility improved twofold or greater in plural solvents or a single solvent) | A (decrease in melting point or Sm-N (smectic-nematic) transition temperature is 20 °C or greater)
40 | 40 | – | – | – | (58) ° C. | – | C=CC(=O)OCCOC(=O)CCC(=O)OCCc1ccc(OC(=O)[C@H]2CC[C@H](C(=O)Oc3cc(C(C)(C)C)c(OC(=O)[C@H]4CC[C@H](C(=O)Oc5ccc(CCOC(=O)CCC(=O)OCCOC(=O)C=C)cc5)CC4)c4c3SC(=C(C#N)C#N)S4)CC2)cc1 [IV-6] | A (solubility improved twofold or greater in plural solvents or a single solvent) | A (decrease in melting point or Sm-N (smectic-nematic) transition temperature is 20 °C or greater)
40 | 40 | – | – | – | (50) ° C. | – | C=CC(=O)OCCOC(=O)CCC(=O)OCCc1ccc(OC(=O)[C@H]2CC[C@H](C(=O)Oc3ccc(OC(=O)[C@H]4CC[C@H](C(=O)Oc5ccc(CCOC(=O)CCC(=O)OCCOC(=O)C=C)cc5)CC4)c4c3SC(=C(C#N)C(=O)OCCC(C)(C)O)S4)CC2)cc1 [III-7] | A (solubility improved twofold or greater in plural solvents or a single solvent) | A (decrease in melting point or Sm-N (smectic-nematic) transition temperature is 20 °C or greater)
40 | 40 | – | – | – | (113) ° C. | (61) ° C. | C=CC(=O)OCCOC(=O)CCC(=O)OCCc1ccc(OC(=O)[C@H]2CC[C@H](C(=O)Oc3cc(CC)c(OC(=O)[C@H]4CC[C@H](C(=O)Oc5ccc(CCOC(=O)CCC(=O)OCCOC(=O)C=C)cc5)CC4)c4c3SC(=C(C#N)C#N)S4)CC2)cc1 [IV-2] | – | –
10 | <5 | – | – | – | (167) ° C. | – | C=CC(=O)OCCCCCCOc1ccc(OC(=O)[C@H]2CC[C@H](C(=O)Oc3cc(C(C)(C)C)c(OC(=O)[C@H]4CC[C@H](C(=O)Oc5ccc(OCCCCCCOC(=O)C=C)cc5)CC4)c4c3SC(=C(C#N)C#N)S4)CC2)cc1 [IVa-6, reference compound] | – | –

Reference: patent US11072741B2, “Optically anisotropic layer, method for producing the optically anisotropic layer, a laminate, polarizing plate, display device, liquid crystal compound, method for producing the liquid crystal compound, and carboxylic acid compound” (FUJIFILM Corporation, priority 2014, dated 2021)
